# Measured values from article PMC5482477, “Overexpression and characterization of two types of nitrile hydratases from Rhodococcus rhodochrous J1” (PLoS ONE, 2017).
# Biological target: T1, H-NHase (NhhBA) (Rhodococcus rhodochrous, UniProt P21219+P21220)
# T1 construct: gene nhhA; alpha10beta10, 504 kDa by gel filtration; cobalt-containing
# T1 sequence (P21219 2-203): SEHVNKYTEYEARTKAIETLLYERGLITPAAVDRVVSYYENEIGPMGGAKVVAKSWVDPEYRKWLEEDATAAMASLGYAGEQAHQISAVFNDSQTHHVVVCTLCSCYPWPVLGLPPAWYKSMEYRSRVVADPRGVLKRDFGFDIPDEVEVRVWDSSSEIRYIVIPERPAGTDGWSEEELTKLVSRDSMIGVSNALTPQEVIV
# T1 sequence (P21220 1-229): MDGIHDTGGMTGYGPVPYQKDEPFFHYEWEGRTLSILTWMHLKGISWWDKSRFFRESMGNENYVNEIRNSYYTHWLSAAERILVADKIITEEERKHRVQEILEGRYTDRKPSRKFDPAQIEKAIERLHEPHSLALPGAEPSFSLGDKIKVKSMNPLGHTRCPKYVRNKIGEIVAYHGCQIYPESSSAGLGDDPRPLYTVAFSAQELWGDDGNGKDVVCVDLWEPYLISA
# Test: residual activity after […] min treatment, HPLC
# Type: biochemical
structure (smiles),measurement,value
NC(=O)c1cccnc1 [nicotinamide],remaining activity at 1.5 M,60%
